This assay deals with T1, Roche FastStart Taq polymerase (Thermus aquaticus, UniProt P19821).
T1 construct: purchased Roche
Kind of assay: Multiplex end-point PCR (GAPDH) with stabilized Roche FastStart Taq after storage. The settings on record: 3 weeks at 45° C.; polymerase mixed 1:4 with stabilizer; FIG. 1b. The format is biochemical. The protocol: Roche FastStart Taq polymerase (stored at −20° C. in 50% glycerol) was mixed in a 1:4 ratio with a range of liquid stabilizer solutions as set forth in Table 4 and incubated at both room temperature and 45° C. A non-protected sample was also included where the polymerase was mixed with an additional quantity of its storage buffer. At various time points, aliquots were taken from the stabilized enzyme solutions and used to perform end-point PCR assays. At each time point, the stabilized enzymes were compared to a frozen positive control enzyme in the same assay.
For end-point PCR, a multiplex assay using three primer sets to generate 3 different size fragments of the GAPDH gene was used. Typical PCR reactions contained the following: 1× Roche PCR reaction buffer, 10 ng human genomic DNA, 300 μM dNTPs, 240 nM GAPDH primer set A, 600 nM GAPDH primer set B, 1.2 μM GAPDH primer set C, and 1 unit Roche FastStart Taq polymerase. Cycling conditions were 2 minutes at 95° C. followed by 35 cycles of 30 seconds at 95° C., 30 seconds at 56° C., 30 seconds at 68° C., followed by 5 minutes at 68° C. PCR products were run on 2% agarose gels and visualized using ethidium bromide.

T1 sequence (P19821 whole entry): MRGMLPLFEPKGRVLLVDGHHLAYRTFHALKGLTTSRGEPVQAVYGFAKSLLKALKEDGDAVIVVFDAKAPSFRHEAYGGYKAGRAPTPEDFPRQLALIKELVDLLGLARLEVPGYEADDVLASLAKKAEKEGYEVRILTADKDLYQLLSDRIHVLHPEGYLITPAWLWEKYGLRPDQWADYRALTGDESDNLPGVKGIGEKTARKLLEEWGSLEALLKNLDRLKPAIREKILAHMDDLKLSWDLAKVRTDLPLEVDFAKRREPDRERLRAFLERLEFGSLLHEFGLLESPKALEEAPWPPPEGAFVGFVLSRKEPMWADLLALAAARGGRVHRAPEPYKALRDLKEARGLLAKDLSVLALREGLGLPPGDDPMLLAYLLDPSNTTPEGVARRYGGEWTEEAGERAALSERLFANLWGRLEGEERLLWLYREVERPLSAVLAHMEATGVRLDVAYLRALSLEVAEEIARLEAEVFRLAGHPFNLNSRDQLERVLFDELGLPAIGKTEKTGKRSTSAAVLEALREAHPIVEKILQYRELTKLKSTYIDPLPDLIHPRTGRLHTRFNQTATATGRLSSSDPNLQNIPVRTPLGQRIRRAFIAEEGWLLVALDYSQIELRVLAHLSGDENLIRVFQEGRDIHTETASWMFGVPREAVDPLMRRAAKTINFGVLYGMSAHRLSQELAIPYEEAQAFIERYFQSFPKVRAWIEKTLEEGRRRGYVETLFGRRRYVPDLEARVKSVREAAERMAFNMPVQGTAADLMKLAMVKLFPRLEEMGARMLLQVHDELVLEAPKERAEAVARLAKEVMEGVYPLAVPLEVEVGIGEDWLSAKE

Consider `C[N+]1(CCC(=O)[O-])CCC(O)CC1` (stereo not shown) [Compound 102, 3-(4-hydroxy-1-methylpiperidinium-1-yl)propanoate], for which the “polymerase activity after storage (end-point PCR)” value is “provides increased stability”.

The values above are taken from patent publication US9725703B2, “Formulations and methods for stabilizing PCR reagents” (BIOMATRICA, INC., priority 2012, dated 2017).
